# Columns and labels:
# [1] = system: skin cancer cell line, A431; experiment: Inhibitory effect on growth of cancer cell line A431, SRB; assay type: cell-based; settings: Homo sapiens, A-431, 72 h, overexpressed EGFR1 (HER-1)
# How it was run: (§1)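 Cells were cultured in DMEM with 10% FBS. Compounds were applied at 10 μM with 10-fold serial dilution to 10^−4, DMSO <1%, for 72 h at 37 °C. Cells were then TCA-fixed and stained with 0.4% SRB, and absorbance was read at 570 nm after solubilisation in 10 mM Tris base.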
# [2] = system: breast cancer cell line, SK-Br3; experiment: Inhibitory effect on growth of cancer cell line SK-Br3, SRB; assay type: cell-based; settings: Homo sapiens, SK-BR-3, 72 h, overexpressed EGFR2 (HER-2)
# How it was run: as §1
# EGFR1 (HER-1) = EGFR1 (HER-1) (Homo sapiens (Human), UniProt P00533); experiment: EGFR1 (HER-1) enzyme assay, fluorescence polarization; assay type: biochemical; settings: 100 μM ATP, poly(Glu, Tyr) substrate
# VEGFR2 (KDR) = VEGFR2 (KDR) (Homo sapiens (Human), UniProt P35968); experiment: VEGFR2 (KDR) enzyme assay, fluorescence polarization; assay type: biochemical; settings: 5 μM ATP, poly(Glu, Tyr) substrate
# How it was run: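 Autophosphorylation read by fluorescence polarization: VEGFR2 (Proquinase) at 200 ng/10 μl with 5 μM ATP and 10 ng/ml poly(Glu,Tyr) 4:1, in 20 mM HEPES pH 7.4, 5 mM MgCl2, 2 mM MnCl2, 50 μM Na3VO4. Reaction 1 h at room temperature, EDTA stop, then anti-phosphotyrosine antibody/tracer for 30 min in the dark.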
# [3] = system: colon and rectal cancer cell line, SW-620; experiment: Inhibitory effect on growth of cancer cell line SW-620, SRB; assay type: cell-based; settings: Homo sapiens, 72 h, not having overexpressed EGFR and EGFR2
# How it was run: as §1
# [4] = system: Human Umbilical Vein Endothelial Cell (HUVEC); experiment: Inhibitory effect on growth of human umbilical vein endothelial cell (HUVEC), MTS; assay type: cell-based; settings: Homo sapiens, 96 h, 10 ng/ml VEGF, absorbance 490 nm
# VEGFR2 (KDR), sequence (P35968 20-1356): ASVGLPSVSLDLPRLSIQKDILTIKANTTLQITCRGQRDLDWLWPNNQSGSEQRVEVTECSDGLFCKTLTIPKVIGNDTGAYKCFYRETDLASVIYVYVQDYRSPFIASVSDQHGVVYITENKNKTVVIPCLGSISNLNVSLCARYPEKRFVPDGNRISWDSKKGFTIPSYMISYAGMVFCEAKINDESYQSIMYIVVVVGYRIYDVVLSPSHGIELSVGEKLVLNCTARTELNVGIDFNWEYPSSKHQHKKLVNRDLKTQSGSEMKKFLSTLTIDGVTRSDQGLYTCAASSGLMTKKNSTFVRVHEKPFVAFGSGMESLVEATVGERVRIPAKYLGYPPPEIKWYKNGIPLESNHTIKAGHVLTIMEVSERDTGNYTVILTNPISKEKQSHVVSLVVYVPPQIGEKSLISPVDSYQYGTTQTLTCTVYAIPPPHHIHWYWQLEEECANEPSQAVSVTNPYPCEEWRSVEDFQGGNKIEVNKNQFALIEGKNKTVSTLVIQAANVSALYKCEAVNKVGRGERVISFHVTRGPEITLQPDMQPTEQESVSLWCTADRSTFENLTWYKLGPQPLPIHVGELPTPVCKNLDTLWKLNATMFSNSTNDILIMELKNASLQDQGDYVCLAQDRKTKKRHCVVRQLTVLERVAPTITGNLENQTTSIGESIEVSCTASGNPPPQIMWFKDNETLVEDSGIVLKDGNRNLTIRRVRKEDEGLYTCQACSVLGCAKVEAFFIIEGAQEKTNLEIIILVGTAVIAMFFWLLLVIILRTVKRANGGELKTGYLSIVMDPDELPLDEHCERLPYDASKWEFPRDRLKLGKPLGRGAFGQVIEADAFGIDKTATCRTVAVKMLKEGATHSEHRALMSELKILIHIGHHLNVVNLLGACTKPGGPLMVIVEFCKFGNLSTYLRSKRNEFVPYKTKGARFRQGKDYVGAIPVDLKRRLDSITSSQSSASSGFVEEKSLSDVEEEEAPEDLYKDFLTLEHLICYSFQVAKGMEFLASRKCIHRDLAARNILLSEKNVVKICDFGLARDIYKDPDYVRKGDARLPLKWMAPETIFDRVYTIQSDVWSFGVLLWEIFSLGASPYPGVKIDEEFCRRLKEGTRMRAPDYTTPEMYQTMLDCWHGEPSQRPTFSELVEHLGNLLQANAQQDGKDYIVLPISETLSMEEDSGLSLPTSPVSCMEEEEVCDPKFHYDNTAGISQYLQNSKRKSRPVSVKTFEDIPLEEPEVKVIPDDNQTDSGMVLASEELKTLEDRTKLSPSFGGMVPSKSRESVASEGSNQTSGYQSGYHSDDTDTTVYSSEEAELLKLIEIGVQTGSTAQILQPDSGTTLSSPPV
# EGFR1 (HER-1), sequence (P00533 25-1210): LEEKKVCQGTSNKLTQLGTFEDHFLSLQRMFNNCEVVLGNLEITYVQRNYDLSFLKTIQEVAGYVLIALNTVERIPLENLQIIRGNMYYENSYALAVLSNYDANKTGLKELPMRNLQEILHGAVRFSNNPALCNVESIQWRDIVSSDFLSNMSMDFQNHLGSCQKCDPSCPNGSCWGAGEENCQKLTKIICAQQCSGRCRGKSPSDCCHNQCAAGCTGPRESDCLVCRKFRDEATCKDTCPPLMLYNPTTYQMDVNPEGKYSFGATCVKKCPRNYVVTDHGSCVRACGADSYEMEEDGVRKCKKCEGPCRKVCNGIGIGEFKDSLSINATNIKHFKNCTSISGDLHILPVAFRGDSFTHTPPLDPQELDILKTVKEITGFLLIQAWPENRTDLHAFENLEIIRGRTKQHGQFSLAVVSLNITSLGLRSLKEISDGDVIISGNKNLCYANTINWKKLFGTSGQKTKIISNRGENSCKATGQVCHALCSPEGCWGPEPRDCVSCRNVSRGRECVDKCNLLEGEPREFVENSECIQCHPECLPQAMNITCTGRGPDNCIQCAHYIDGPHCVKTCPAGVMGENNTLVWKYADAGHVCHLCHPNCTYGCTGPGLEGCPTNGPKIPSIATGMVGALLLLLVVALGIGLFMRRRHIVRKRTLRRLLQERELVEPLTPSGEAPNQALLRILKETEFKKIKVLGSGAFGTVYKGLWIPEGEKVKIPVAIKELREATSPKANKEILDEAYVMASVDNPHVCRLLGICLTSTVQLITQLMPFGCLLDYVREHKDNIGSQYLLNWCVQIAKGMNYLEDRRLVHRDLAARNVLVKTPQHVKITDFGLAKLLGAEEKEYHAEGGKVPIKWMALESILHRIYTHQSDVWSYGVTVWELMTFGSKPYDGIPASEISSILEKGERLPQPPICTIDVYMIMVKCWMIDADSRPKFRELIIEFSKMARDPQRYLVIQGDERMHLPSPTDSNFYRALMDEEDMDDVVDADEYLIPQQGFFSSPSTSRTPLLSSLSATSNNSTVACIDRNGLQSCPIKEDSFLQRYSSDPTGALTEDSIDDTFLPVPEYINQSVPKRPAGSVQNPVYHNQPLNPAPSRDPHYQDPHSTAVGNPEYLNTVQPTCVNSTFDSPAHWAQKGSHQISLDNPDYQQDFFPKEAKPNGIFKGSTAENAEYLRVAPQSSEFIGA
Structure (SMILES),IC50 [1] [nM],IC50 [2] [nM],IC50 (EGFR1 (HER-1)) [nM],IC50 (VEGFR2 (KDR)) [nM],IC50 [3] [nM],IC50 [4] [nM]
"C=CC(=O)Nc1cc2c(Nc3ccc(Br)cc3F)ncnc2cc1OCCOC [Example 32, N-[4-(4-bromo-2-fluoro-phenylamino)-7-(2-methoxy-ethoxy)-quinazolin-6-yl]-acrylamide]",31,198,25,259,4550,350
"C=CC(=O)Nc1cc2c(Nc3ccc(Br)cc3F)ncnc2cc1OCCNC(=O)NCCC [Example 34, N-{4-(4-bromo-2-fluoro-phenylamino)-7-[2-(3-propyl-ureido)-ethoxy]-quinazolin-6-yl}-acrylamide]",35,67,26,458,2540,678
"C=CC(=O)Nc1cc2c(Nc3ccc(Br)cc3F)ncnc2cc1OCCNC(=S)NC [Example 35, N-{4-(4-bromo-2-fluoro-phenylamino)-7-[2-(3-methyl-thioureido)-ethoxy]-quinazolin-6-yl}-acrylamide]",90,225,98,457,9560,951
"C=CC(=O)Nc1cc2c(Nc3ccc(Br)cc3F)ncnc2cc1OCCNC(=S)NCC [Example 36, N-{4-(4-bromo-2-fluoro-phenylamino)-7-[2-(3-ethyl-thioureido)-ethoxy]-quinazolin-6-yl}-acrylamide]",89,43,91,354,722,389
"C=CC(=O)Nc1cc2c(Nc3ccc(Br)cc3F)ncnc2cc1OCCNC(=O)NC(C)C [Example 37, N-{4-(4-bromo-2-fluoro-phenylamino)-7-[2-(3-isopropyl-ureido)-ethoxy]-quinazolin-6-yl}-acrylamide]",31,65,36,895,4540,682
"C=CC(=O)Nc1cc2c(Nc3ccc(Br)cc3F)ncnc2cc1OCCNC(=O)NC(C)CC (stereo not drawn) [Example 38, N-{4-(4-bromo-2-fluoro-phenylamino)-7-[2-(3-sec-butyl-ureido)-ethoxy]-quinazolin-6-yl}-acrylamide]",21,245,20,324,2580,367
"C=CNC(=O)NCCOc1cc2ncnc(Nc3ccc(Br)cc3F)c2cc1NC(=O)C=C [Example 39, N-{4-(4-bromo-2-fluoro-phenylamino)-7-[2-(3-vinyl-ureido)-ethoxy]-quinazolin-6-yl}-acrylamide]",28,176,29,264,4520,325
"C=CCNC(=O)NCCOc1cc2ncnc(Nc3ccc(Br)cc3F)c2cc1NC(=O)C=C [Example 40, N-[7-[2-(3-allyl-ureido)-ethoxy]-4-(4-bromo-2-fluoro-phenylamino)-quinazolin-6-yl]-acrylamide]",13,166,19,155,10000,268
"C=CC(=O)Nc1cc2c(Nc3ccc(Br)c(Cl)c3F)ncnc2cc1OCCNC(=O)N1CCOCC1 [Example 41, morpholine-4-carboxylic acid {2-[6-acryloylamino-4-(4-bromo-3-chloro-2-fluoro-phenylamino)-quinazolin-7-yloxy]-ethyl}-amide]",46,53,35,134,7860,221
"C=CC(=O)Nc1cc2c(Nc3ccc(Br)cc3F)ncnc2cc1OCCN(C)C(C)=O [Example 42, N-[7-[2-(acetyl-methyl-amino)-ethoxy]-4-(4-bromo-2-fluoro-phenylamino)-quinazolin-6-yl]-acrylamide]",63,142,59,687,9560,786
"C=CC(=O)Nc1cc2c(Nc3ccc(Br)cc3F)ncnc2cc1SCCNC(C)=O [Example 43, N-[7-(2-acetylamino-ethylsulfanyl)-4-(4-bromo-2-fluoro-phenylamino)-quinazolin-6-yl]-acrylamide]",104,4340,109,785,3670,987
"C=CC(=O)Nc1cc2c(Nc3ccc(Br)cc3F)ncnc2cc1OCCNC(=O)COC [Example 44, N-{4-(4-bromo-2-fluoro-phenylamino)-7-[2-(2-methoxy-acetylamino)-ethoxy]-quinazolin-6-yl}-acrylamide]",16,98,14,161,2320,265
"C=CC(=O)Nc1cc2c(Nc3ccc(Br)cc3F)ncnc2cc1OCCNC(=O)CO [Example 45, N-{4-(4-bromo-2-fluoro-phenylamino)-7-[2-(2-hydroxy-acetylamino)-ethoxy]-quinazolin-6-yl}-acrylamide]",37,234,32,325,10000,350
"C=CC(=O)Nc1cc2c(Nc3ccc(Br)cc3F)ncnc2cc1OCCNC(=O)CSC [Example 46, N-{4-(4-bromo-2-fluoro-phenylamino)-7-[2-(2-methylsulfanyl-acetylamino)-ethoxy]-quinazolin-6-yl}-acrylamide]",35,198,39,635,7520,656
"C=CC(=O)Nc1cc2c(Nc3ccc(Br)cc3F)ncnc2cc1OCCNC(=O)CS(C)(=O)=O [Example 47, N-{4-(4-bromo-2-fluoro-phenylamino)-7-[2-(2-methanesulfonyl-acetylamino)-ethoxy]-quinazolin-6-yl}-acrylamide]",27,67,24,209,9570,269
"C=CC(=O)Nc1cc2c(Nc3ccc(Br)cc3F)ncnc2cc1OCCNC(=O)C(C)C [Example 48, N-[4-(4-bromo-2-fluoro-phenylamino)-7-(2-isobutyrylamino-ethoxy)-quinazolin-6-yl]-acrylamide]",114,70,128,698,10000,697
"C=CC(=O)Nc1cc2c(Nc3ccc(Br)cc3F)ncnc2cc1OCCNC(=O)C(=C)C [Example 49, N-{2-[6-acryloylamino-4-(4-bromo-2-fluoro-phenylamino)-quinazolin-7-yloxy]-ethyl}-2-methyl-acrylamide]",62,243,69,854,4590,964
"C=CC(=O)Nc1cc2c(Nc3ccc(Br)cc3F)ncnc2cc1OCCNC(=O)C=CC [Example 50, but-2-enoic acid {2-[6-acryloylamino-4-(4-bromo-2-fluoro-phenylamino)-quinazolin-7-yloxy]-ethyl}-amide]",15,71,19,66,9570,101
"C=CC(=O)Nc1cc2c(Nc3ccc(Br)cc3F)ncnc2cc1OCCNC(=O)C=CCC [Example 52, pent-2-enoic acid {2-[6-acryloylamino-4-(4-bromo-2-fluoro-phenylamino)-quinazolin-7-yloxy]-ethyl}-amide]",37,84,36,354,10000,350
"C=CC(=O)Nc1cc2c(Nc3ccc(Br)cc3F)ncnc2cc1OCCNC(=O)C=CCN(C)C [Example 53, 4-dimethylamino-but-2-enoic acid {2-[6-acryloylamino-4-(4-bromo-2-fluoro-phenylamino)-quinazolin-7-yloxy]-ethyl}-amide]",12,223,16,875,4760,964
"C=CC(=O)Nc1cc2c(Nc3ccc(Br)c(Cl)c3F)ncnc2cc1OCCNC(=O)NC(C)(C)C [Example 54, N-{4-(4-bromo-3-chloro-2-fluoro-phenylamino)-7-[2-(3-t-butyl-ureido)-ethoxy]-quinazolin-6-yl}-acrylamide]",59,456,45,423,10000,568
"C=CC(=O)Nc1cc2c(Nc3ccc(Br)cc3F)ncnc2cc1OCCNCC(C)=O [Example 55, N-{4-(4-bromo-2-fluoro-phenylamino)-7-[2-(2-oxo-propylamino)-ethoxy]-quinazolin-6-yl}-acrylamide]",426,437,589,471,4540,359

# — patent US8846699B2, “Quinazoline derivatives as a multiplex inhibitor and method for the preparation thereof” (Hanmi Pharm. Co., Ltd., priority 2005, dated 2014)
